Six molecules from patent US20080026986A1, “REVERSAL OF THE SUPPRESSIVE FUNCTION OF SPECIFIC T CELLS VIA TOLL-LIKE RECEPTOR 8 SIGNALING” (priority 2006, published 2008) can be followed below.

Entries after “also recorded” stand apart in the source; their conditions may differ.

One assay concerns PTIL194 and PTIL237. Description: Reversal of suppressive function of PTIL194 and PTIL237 by TLR ligands (naïve CD4+ T cell proliferation). Conditions: naïve CD4+ T cells:Treg 10:1, OKT3-coated plates, FIG. 5A. It counts as cell-based, human. The procedure:
(§1) (C) Expression of TLR8 mRNA in CD4^+ Treg and CD8^+ Treg cell clones generated from PTIL194 by RT-PCR.
Naïve CD4^+ T cells were purified from PBMCs by using microbeads (Miltenyi Biotec). Naïve CD4^+ T cells (10^5/well) were cultured with regulatory T cells at a ratio of 10:1 in OKT3 (2 μg/ml)-coated, U bottomed 96-well plates containing the following TLR ligands. […] CpG-A (3 μg/ml), CpG-B (3 μg/ml) and poly-G3 oligonucleotides (3 μg/ml) were synthesized by Integrated DNA Technologies (Coralville, Iowa). All experiments were performed at least more than once.
CD4^+ CD25-T cells (2×10^5) purified from human PBMCs by antibody-coated beads (Dynal, Inc.) were cultured for 60 hours in U-bottomed 96-well plates containing 5×104 CD3-depleted APCs, 0.1 μg/ml anti-CD3 mAb, and different numbers of CD4^+ regulatory or effector T cells. The proliferation of responder T cells was determined by the incorporation of [H^3]thymidine for the last 16 hours of culture, as previously described (Wang et al., 2004; Wang et al., 2005). Cells were harvested and the radioactivity counted in a scintillation counter. All experiments were performed in triplicate. Transwell experiments were performed in 24-well plates with a pore size of 0.4 μm (Coming Costar, Cambridge, Mass.). 2×10^5 the freshly purified naïve CD4^+ T cells were cultured in the outer wells of 24-well plate in medium containing 0.1 μg/ml anti-CD3 antibody and 2×10^5 APCs. Equal numbers of regulatory T cells or nonregulatory T cells were added into the inner wells in the same medium containing 0.5 μg/ml anti-CD3 antibody and 2×10^5 APCs. After 56 hours of culture, the cells in the outer and inner wells were harvested separately and transferred to 96-well plates. [H^3]thymidine was added, and the cells were cultured for an additional 16 hours before harvest for the radioactivity counting with a liquid scintillation counter.
Naïve CD4^+ T cells were purified from PBMCs by use of microbeads (Miltenyi Biotec). Naïve CD4^+ T cells (10^5/well) were cultured with regulatory T cells at a ratio of 10:1 in OKT3 (2 μg/ml)-coated, U bottomed 96-well plates containing the following ligands. […] CpG-A (3 μg/ml), CpG-B (3 μg/ml) and poly-G oligonucleotides (3 μg/ml) were synthesized by Integrated DNA Technologies (Coralville, Iowa).

The test system of assay [1] is naturally occurring CD4+ CD25+ Treg cells. Description: Reversal of suppressive function of naturally occurring CD4+ CD25+ Treg cells. It counts as cell-based.
A further assay concerns CD4+ Treg cells. Kind of assay: Naïve T cell proliferation assay with CD4+ Treg cell populations/clones with or without TLR ligands. It counts as cell-based, human. Conditions: prostate tumor-derived (PTIL194); FIGS. 5A, 5B. The method, then: as §1
(§2) To test this possibility, the suppressive effects of CD4^+ and CD8^+ Treg cells were examined on naïve T cell proliferation in a functional assay, with or without TLR8 ligands (Poly-G2 and ssRNA40) or ligands for other TLRs.
(§3) CD4^+ CD25-T cells (2×10^5) purified from human PBMCs by antibody-coated beads (Dynal, Inc.) were cultured for 60 hours in U-bottomed 96-well plates containing 5×104 CD3-depleted APCs, 0.1 μg/ml anti-CD3 mAb, and different numbers of CD4^+ regulatory or effector T cells. The proliferation of responder T cells was determined by the incorporation of [H^3]thymidine for the last 16 hours of culture, as previously described (Wang et al., 2004; Wang et al., 2005). Cells were harvested and the radioactivity counted in a scintillation counter. All experiments were performed in triplicate. Transwell experiments were performed in 24-well plates with a pore size of 0.4 μm (Coming Costar, Cambridge, Mass.). 2×10^5 the freshly purified naïve CD4^+ T cells were cultured in the outer wells of 24-well plate in medium containing 0.1 μg/ml anti-CD3 antibody and 2×10^5 APCs. […] [H^3]thymidine was added, and the cells were cultured for an additional 16 hours before harvest for the radioactivity counting with a liquid scintillation counter. […]

Another assay has as its system CD8+ Treg cells. Description: Naïve T cell proliferation assay with CD8+ Treg cell populations/clones with or without TLR ligands. To be noted: prostate tumor-derived (PTIL194); FIGS. 5A, 5B. It counts as cell-based, human. The method, then: as §1, §2, §3
Assay [2] has as its system BTIL31 γδ1 Treg cells. Kind of assay: Naïve CD4+ T cell proliferation ([3H]-thymidine) in coculture with BTIL31 cells plus TLR ligands. It counts as cell-based, human. Conditions: naïve CD4+ T cells:BTIL31 10:1, OKT3-coated plates; FIG. 13A. The method, then:
(§4) In addition, naïve CD4^+ T cells were cultured in the presence of supernatants derived from BTIL31 cells pre-treated with or without the indicated TLR ligands. The proliferation of naïve CD4^+ T cells was determined by [^3H]-thymidine incorporation assay described herein. […] CFSE-labeled Naïve CD4^+ T cells cocultured with BTIL31 cells or its clones in the presence or absence of Poly-G3 in OKT3-coated 24-well plates. After 3 days of culture, cells were harvested and analyzed for divisions by FACS gated on the CFSE-labeled cells. CFSE-labeled Naïve CD4^+ T cells alone served as a control. […] BTIL31 cells were cultured in the presence or absence of Poly-G3 for 2 days, and then tested the ability of Poly-G3-treated and untreated BTIL31 cells to kill BC31 autologous tumor cells.
Naïve CD4^+ T cells were purified from PBMCs by using microbeads (Miltenyi Biotec). Naïve CD4^+ T cells (10^5/well) were cultured with regulatory T cells at a ratio of 10:1 in OKT3 (2 μg/ml)-coated, U bottomed 96-well plates containing the following TLR ligands. […] CpG-A (3 μg/ml), CpG-B (3 μg/ml) and poly-G3 oligonucleotides (3 μg/ml) were synthesized by Integrated DNA Technologies (Coralville, Iowa). All experiments were performed at least more than once. […]

Assay [3] relates to BTIL31 γδ1 Treg cells. Description: Naïve CD4+ T cell proliferation with supernatants from TLR ligand-treated BTIL31 cells. It counts as cell-based, human. To be noted: FIG. 13A. The method, then:
as §4
(§5) To test whether the suppressive function of BTIL31 γδ1 Treg cells could be reversed by TLR-8 ligands, cells were treated with a panel of TLR ligands and then test their ability to suppress naïve T cell proliferation. […] After 48 h, CFSE-labeled cells were gated for FACS analysis.

For assay [4], the system named is BTIL31 γδ1 Treg cells. Description: CFSE-labeled naïve CD4+ T cell division in coculture with BTIL31 cells or clones. It counts as cell-based, human. Conditions: coculture with BTIL31 bulk cells or clones, FACS, FIG. 13B. The procedure: as §4, §5
The subject of assay [5] is BTIL31 γδ1 Treg cells. Kind of assay: Killing of BC31 autologous tumor cells by Poly-G3-treated BTIL31 cells. It counts as cell-based, human. To be noted: BTIL31 cultured with Poly-G3 for 2 days; FIG. 13C. The method, then: (A). Reversal of the suppressive function of γδ 1 T cells by TLR8 ligands, but not by ligands for other TLRs. naïve CD4^+ T cells were cultured with BTIL31 cells at the ratio of 10:1 in the U bottom 96-well plates pre-coated with OKT3 in the presence of different TLR ligands: LPS, CpG-A, CpG-B, Imiquimod-R837, loxoribine, poly (I: C), ssRNA40/LyoVec, RNA33/LyoVec, pam3CSK4, flagellin and Poly-G3. In addition, naïve CD4^+ T cells were cultured in the presence of supernatants derived from BTIL31 cells pre-treated with or without the indicated TLR ligands. The proliferation of naïve CD4^+ T cells was determined by [^3H]-thymidine incorporation assay described herein. Results are one representative data of three independent experiments. (B) Restoration of CFSE-naïve CD4^+ T cell division by Poly-G3 oligonucleotides. CFSE-labeled Naïve CD4^+ T cells cocultured with BTIL31 cells or its clones in the presence or absence of Poly-G3 in OKT3-coated 24-well plates. After 3 days of culture, cells were harvested and analyzed for divisions by FACS gated on the CFSE-labeled cells. CFSE-labeled Naïve CD4^+ T cells alone served as a control. (C) Poly-G treatment had no effect on TRAIL-mediated killing activity. BTIL31 cells were cultured in the presence or absence of Poly-G3 for 2 days, and then tested the ability of Poly-G3-treated and untreated BTIL31 cells to kill BC31 autologous tumor cells. […]

For the molecule `CC(C)Cn1cnc2c(N)nc3ccccc3c21` [imiquimod, Imiquimod], the “Restoration of Treg cell suppressed proliferation of naïve CD4+ T cells” value (shortened to “Restoration … of naïve CD4+ T cells”) with PTIL194 and PTIL237 was “no effect”. For the same molecule, the “Effect on naturally occurring CD4+ CD25+ Treg cells” value in assay [1] was “little or no effect”.

For `C=CCn1c(=O)n([C@@H]2O[C@H](CO)[C@@H](O)[C@H]2O)c2nc(N)[nH]c(=O)c21` [loxoribine], the “Restoration … of naïve CD4+ T cells” value in the assay on PTIL194 and PTIL237 was “no effect”.

For the molecule AAG*GA [Poly-G2], the “Restoration … of naïve CD4+ T cells” value in the assay with PTIL194 and PTIL237 is recorded as “Restoration”. The “Reversal of suppressive function of CD4+ Treg-containing cell populations and Treg cell clones” value with CD4+ Treg cells is on record as “abolished; also recorded: Reversal of suppressive function”. Besides, the “Reversal of suppressive function of CD8+ Treg-containing cell populations and clones” value with CD8+ Treg cells is listed as “Reversal of suppressive function”.

Consider AG*G*GA [Poly-G3], for which, in the assay on BTIL31 γδ1 Treg cells [2], the “Reversal of the suppressive function of BTIL31 γδ1 Treg cells (proliferation of naïve CD4+ T cells)” value is “reverse the suppressive function”. Moreover, in the assay with BTIL31 γδ1 Treg cells [3], the “Effect of supernatants from ligand-treated γδ1 Treg cells on proliferation of naïve CD4+ T cells” value is “enhanced rather than inhibited”. Besides, the figures for the “Restoration of proliferation or division of CFSE-labeled naïve CD4+ T cells” value with BTIL31 γδ1 Treg cells [4] and in the assay on BTIL31 γδ1 Treg cells [4] (listed as poly-G3) were “Restoration” and “completely restored”, respectively. In addition, the “Effect on TRAIL-mediated killing of BC31 tumor cells by BTIL31 cells” value in the assay with BTIL31 γδ1 Treg cells [5] is recorded as “no effect”.

In the case of pam3CSK4, the “Restoration … of naïve CD4+ T cells” value in the assay on PTIL194 and PTIL237 is “no effect”.

For the molecule poly(I:C), in the assay on PTIL194 and PTIL237, the “Restoration … of naïve CD4+ T cells” value was “no effect”.
